Columns and labels:
[1] = Equilibration of imines in deuterium oxide (1H NMR); type: physicochemical; conditions: conditions of Table 3
Experimental: (§1) The compounds according to formula (I) at different concentrations (c=10 . . . 500 mM) were individually dissolved in deuterium oxide (0.7 mL) at room temperature. The pD was measured and the hydrolysis of the imine was followed by ^1H NMR until an equilibrium was reached. The imine concentration at equilibrium was determined. Reactions with constant pD were either performed at unmodified pD (basic) or in a 4-(2-hydroxyethyl)-1-piperazineethanesulfonic acid (HEPES) buffer (slightly acidic). The data summarized in Table 3 were obtained from the measurements.

[2] = Surface tension of aqueous solutions (Kruss DSA 10 MK2 Drop Shape Analysis); type: physicochemical; conditions: for surface tension / surface activity: aqueous solution 1% wt, FIG. 2; for critical concentration (CMC) and self-aggregation in micelles: surface tension as function of concentration, FIG. 3
Experimental: The surface activity of aqueous solutions of typical well known surfactants at concentration of 1% wt was measured by Kruss DSA 10 MK2 Drop Shape Analysis System. In parallel, the HLB value of the surfactant molecules was calculated by using ECL model. FIG. 2 represented the correlation between the surface tension and the calculated HLB values (black circles). The curve reached a saturation value at HLB 18, which was the limit of the HLB range for the compound of formula (I). All molecules having HLB higher than 18 are not part of the present invention due to a strong water solubility and an insufficient surface activity.
The surface tension of compounds of formula (I): Imine F, Imine D, Imine E, Imine B and of comparative Imine C1, was measured as well and the data were added to FIG. 2 (grey squares). […] The HLB calculated for this molecule was higher than 18 and therefore out of the limits fixed in the present invention.
As a comparative example, the compound Imine C7 reported in Polymer 2014, vol. 55, pages 1443-1451 was synthetized (see Example 3 g)) and surface tension of the aqueous solution of 1% wt of this molecule was measured. The data was included in FIG. 2 (black triangle).
The surface tension as function of the concentration of Imine compounds F and C1 was measured and presented on FIG. 3.

[3] = Kinetics of hydrolysis of imines in deuterium oxide (1H NMR); type: physicochemical; conditions: for order of hydrolysis kinetics: t1/2 versus initial concentration
Experimental: as §1

[4] = Solubilizing capacity of imines for a model perfume in water; type: physicochemical; conditions: for Fragrance/Surfactant Weight Ratio: transparent solution of model perfume in water; for Imine: minimal value of surfactant necessary to obtain a transparent solution: water 9.0 g and model perfume 0.3 g
Experimental: Water (9.0 g) and the model perfume composition of Table 8 (0.3 g) are mixed under gentle agitation. The resulting solution is turbid. Imines of formula (I) are then added until a transparent solution was obtained. The ratio fragrance to surfactant indicates the solubilizing capacity of the imines wherein higher ratio indicates higher solubilizing capacity of the imine.

[5] = Hydrolysis of imines in model formulation with Texapon NSO IS; type: physicochemical; conditions: Texapon NSO IS 4 wt % in deuterium oxide, c0 10 mM
Experimental: To investigate the hydrolysis of the imines according to formula (I), a simple model formulation in deuterium oxide was prepared. Freeze-dried Texapon® NSO IS (trademark from BASF and commercially available from BASF) (4 wt %) was dissolved in deuterium oxide (95 wt %) at room temperature. The imine according to formula (I) (1 wt %) was added to the formulation at the beginning of the experiment (t=0), the pH was measured and the NMR measurements were started.

[6] = Hydrolysis of imines in deuterium oxide in the presence of co-surfactants; type: physicochemical; conditions: c0 10 mM
Experimental: The influence of the presence of (co-)surfactants on the hydrolysis of imines according to formula (I) was investigated by ^1H NMR spectroscopy in deuterium oxide (0.7 mL) as described in Example 5 with an initial imine concentration of 10 mM and 4 wt % of an additional surfactant. The following surfactants were tested: sodium dodecyl sulfate (SDS), sodium laureth sulphate (Texapon® NSO IS; trademark from BASF and commercially available from BASF), hexadecyl-trimethyl-ammonium bromide (cetrimonium bromide), 2,5,8,11,14,17,20,23,26,29,32,35,38,41,44,47,50,53,56,59,62,65,68,71,74-pentacosaoxahexaheptacontan-76-yl stearate (PEG25Monostearate), (polyethylene glycol)9,10 4-(1,1,3,3-tetramethylbutyl)-phenyl ether (Triton® X-100; trademark from Dow Chemical and commercially available from Sigma Aldrich), polyoxyethylene 20 sorbitan monooleate (Tween® 80; trademark from Uniquema, ICI Americas Inc. and commercially available from Sigma Aldrich).

[7] = type: physicochemical; conditions: pH 2.6
Excerpt: Compounds according to formula (I) were included into citral containing microemulsions formed by mixing a buffer solution at pH=2.6 (48% citric acid and 3.2% NaOH in water), Tween® 80 (trademark from Uniquema, ICI Americas Inc. and commercially available from Sigma Aldrich) and citral in the quantities listed in Table 10. […] The two solutions contained equimolar amounts of citral. At different time intervals the different formulations (0.305 g) were extracted by adding an aqueous solution of NaCl (15%, 2.745 g) and iso-octane (3.050 g). The mixtures were stirred (at 500 rpm for 10 min) and left equilibrating (5 min) to separate into two well distinguished phases. The phases were carefully separated and the organic phase (20 μL) analysed by GC/MS. GC/MS analyses were carried out on an Agilent 6890N Network GC system and an Agilent 5973 Network MS. […] Citral was analyzed by single ion monitoring and the extracted citral concentrations were determined by external standard calibration. […] The citral concentration measured in the extraction experiments as a function of time (FIG. 1), were fitted with Equation 2. The degradation rates, as well as the initial maximum citral concentrations were determined.

[8] = Hydrolysis of imines in model formulation with Hostapur SAS 60 and Genapol LA 70; type: physicochemical; conditions: Hostapur SAS 60 7 wt % and Genapol LA 70 17 wt % in deuterium oxide, c0 10 mM, pD 10.4
Experimental: A second aqueous surfactant solution was prepared by dissolving freeze-dried sodium C14-17 sec-alkyl sulphonate (Hostapur® SAS 60; trademark from Clariant GmbH and commercially available from Clariant GmbH; 7 wt %) and freeze-dried ethoxylated C12-16 alcohols (Genapol® LA 70; trademark from Clariant GmbH and commercially available from Clariant GmbH; 17 wt %) in deuterium oxide (75 wt %) at room temperature. Then, sodium deuteroxide 40% in deuterium oxide was added until reaching a pH of 10. The imine according to formula (I) (1 wt %) was added to the formulation at the beginning of the experiment (t=0), the pH was measured and the NMR measurements were started.

COCCOCCOCCOCCOCCOCCOCCOCCOCCOCCOCCOCCOCCOCCOCCOCCOCCOCCOCCOCC(C)OCC(C)OCC(C)N=Cc1ccc(O)c(OC)c1 (mixture of isomers) [Imine C1, reference compound]
stability of the imine at equilibrium [1]: mostly cleaved
surface tension / surface activity [2]: high surface tension value
critical concentration (CMC) and self-aggregation in micelles [2]: absence of CMC and self-aggregation

CCCCCCC(C=NC(C)COC(C)COC(C)COC(C)COC(C)COC(C)COC(C)COC(C)COC(C)COC(C)COCCOCCOCCOCCOCCOCCOCCOCCOCCOCCOCCOCCOCCOCCOCCOCCOCCOCCOCCOCCOCCOCCOCCOCCOCCOCCOCCOCCOCCOCCOCCOC)=Cc1ccccc1 (mixture of isomers) [Imine C]
order of hydrolysis kinetics [3]: pseudo-zero order kinetics
Fragrance/Surfactant Weight Ratio [4]: 4.0
Imine: minimal value of surfactant necessary to obtain a transparent solution [4]: 11.43%
half-time of hydrolysis (t1/2) ([5]; pD 10.5): 17.5 h

COCCOCCOCCOCCOCCOCCOCCOCCOCCOCCOCCOCCOCCOCCOCCOCCOCCOCCOCCOCC(C)OCC(C)OCC(C)N=CC=C(C)CCC=C(C)C (mixture of isomers) [Imine D]
surface tension / surface activity [2]: strong surface activity
Fragrance/Surfactant Weight Ratio [4]: 5.2
Imine: minimal value of surfactant necessary to obtain a transparent solution [4]: 14.36%
concentration at equilibrium (ceq) ([6]; co-surfactant Certrimmonium bromide 4 wt %, pD 10.5): 4750 µM
concentration at equilibrium (ceq) ([6]; co-surfactant PEG25Monostearate 4 wt %, pD 10.5): 2790 µM
concentration at equilibrium (ceq) ([6]; co-surfactant SDS 4 wt %, pD 10.5): 8930 µM
concentration at equilibrium (ceq) ([6]; co-surfactant Texapon NSO IS 4 wt %, pD 10.5): 5960 µM
concentration at equilibrium (ceq) ([6]; co-surfactant none, pD 10.5): 2950 µM

COCCOCCOCCOCCOCCOCCOCCOCCOCCOCCOCCOCCOCCOCCOCCOCCOCCOCCOCCOCCOCCOCCOCCOCCOCCOCCOCCOCCOCCOCCOCCOCC(C)OCC(C)OCC(C)OCC(C)OCC(C)OCC(C)OCC(C)OCC(C)OCC(C)OCC(C)N=CC=C(C)CCC=C(C)C (mixture of isomers) [Imine E]
decrease of the citral degradation rate [7]: 1.53 times
surface tension / surface activity [2]: strong surface activity
Fragrance/Surfactant Weight Ratio [4]: 9.3
Imine: minimal value of surfactant necessary to obtain a transparent solution [4]: 23.14%
concentration at equilibrium (ceq) ([6]; co-surfactant PEG25Monostearate 4 wt %, pD 10.4): 7500 µM
concentration at equilibrium (ceq) ([6]; co-surfactant PEG25Monostearate 4 wt %, phosphate buffer (pD 4.4)): 6400 µM
concentration at equilibrium (ceq) ([6]; co-surfactant none, pD 10.4): 2800 µM

CCCCCCCC=CCCC=NC(C)COC(C)COC(C)COCCOCCOCCOCCOCCOCCOCCOCCOCCOCCOCCOCCOCCOCCOCCOCCOCCOCCOCCOC (mixture of isomers) [Imine F]
surface tension / surface activity [2]: strong surface activity
critical concentration (CMC) and self-aggregation in micelles [2]: existence of critical concentration (CMC)
Fragrance/Surfactant Weight Ratio [4]: 2.7
Imine: minimal value of surfactant necessary to obtain a transparent solution [4]: 7.92%

CCCCCCCC=CCCC=NC(C)COC(C)COC(C)COC(C)COC(C)COC(C)COC(C)COC(C)COC(C)COC(C)COCCOCCOCCOCCOCCOCCOCCOCCOCCOCCOCCOCCOCCOCCOCCOCCOCCOCCOCCOCCOCCOCCOCCOCCOCCOCCOCCOCCOCCOCCOCCOC (mixture of isomers) [Imine G]
Fragrance/Surfactant Weight Ratio [4]: 5.3
Imine: minimal value of surfactant necessary to obtain a transparent solution [4]: 14.68%

CCCCCCC(C=NCCc1ccc(OCCOCCOCCOCCOCCOCCOCCOCCOCCOCCOCCOC)cc1)=Cc1ccccc1 [Imine A]
half-time of hydrolysis (t1/2) ([3]; c0 10 mM, pD 10.1): 59.5 h
initial rate of hydrolysis (v0) ([3]; c0 10 mM, pD 10.1): 1.3 10^−3 mM/min
half-time of hydrolysis t1/2 (est.) [8]: 42.5 h
half-time of hydrolysis (t1/2) ([5]; pD 10.6): 9.2 h

CCCCCCC(C=NCCOCCOCCOCCOCCOCCOCCOCCOCCOCCOCCOC)=Cc1ccccc1 [Imine C5]
half-time of hydrolysis ([3]; at all concentrations): around 5 h
half-time of hydrolysis (t1/2) ([3]; c0 10 mM, pD 10.5): 4.56 h
initial rate of hydrolysis (v0) ([3]; c0 10 mM, pD 10.5): 14.8 10^−3 mM/min
half-time of hydrolysis (t1/2) ([3]; c0 25 mM, pD 10.5): 8.4 h
initial rate of hydrolysis (v0) ([3]; c0 25 mM, pD 10.5): 23.7 10^−3 mM/min
half-time of hydrolysis (t1/2) ([3]; c0 100 mM, pD 10.4): 5.28 h
initial rate of hydrolysis (v0) ([3]; c0 100 mM, pD 10.4): 856 10^−3 mM/min
order of hydrolysis kinetics [3]: pseudo-first order kinetics
half-time of hydrolysis (t1/2) ([5]; pD 10.5): 4.3 h
initial rate of hydrolysis (v0) ([5]; pD 10.5): 35.4 10^−3 mM/min

Reference: patent US11344493B2, “Cleavable surfactant” (FIRMENICH SA, priority 2017, dated 2022)
